Data published in US20150284347A1, “NEW BENZENE SULFONAMIDE THIAZOLE COMPOUNDS” (INSERM (INSTITUT NATIONAL DE LA SANTÉ ET DE LA RECHERCHE …, priority 2012, published 2015).

Assays:
normal human fibroblasts = assay: Trypan blue cell viability, normal fibroblasts; type: cell-based; settings: 10 μM, FIG. 2
Experimental: Primary cell cultures of human normal melanocytes were prepared from human foreskin. In order to determine the effect of compound HA15 on cell viability of melanocytes and fibroblasts, 10 μM of ciglitazone or 10 μM of HA15 were added to the cell samples. The measure of cell viability was performed in the same way as for FIG. 1. Results are expressed as the percentage of living cells relatively to the number of living cells in the presence of DMSO, as for FIG. 1. Normal human fibroblasts prepared from foreskins of newborns were grown under 5% CO2 at 37° C. in DMEM medium supplemented with 10% FCS and penicillin/streptomycin (100 U/ml/[…]). Cells were seeded in 6-well plates (60000 cells/well), depleted and incubated with compounds for the times indicated. Then cells were detached in the presence of 2000 of […] (Thermo) and 2 ml of RPMI 1640 Glutamax (Gibco) was added to the cell solution. 100 of this solution was stained for 1 minute with 100 of 0.4% trypan blue before counting with a Malassez chamber. The effect of compound HA15 on cell viability of melanocytes and fibroblasts was studied, as illustrated by FIG. 2. Primary cell cultures of human normal melanocytes were prepared from human foreskin. In order to determine the effect of compound HA15 on cell viability of melanocytes and fibroblasts, 10 μM of ciglitazone or 10 μM of HA15 were added to the cell samples. […]

normal human melanocytes = assay: Trypan blue cell viability, normal melanocytes; type: cell-based; settings: 10 μM, FIG. 2
Experimental: Primary cell cultures of human normal melanocytes were prepared from human foreskin. In order to determine the effect of compound HA15 on cell viability of melanocytes and fibroblasts, 10 μM of ciglitazone or 10 μM of HA15 were added to the cell samples. The measure of cell viability was performed in the same way as for FIG. 1. Results are expressed as the percentage of living cells relatively to the number of living cells in the presence of DMSO, as for FIG. 1. Normal human melanocytes (NHM) prepared from foreskins of newborns were grown under 5% CO2 at 37° C. in MCDB 153 (Sigma) supplemented with 2% FCS, bovine pituitary extract (10 μg/ml), PMA (8 nM), bFGF (ing/nil), insulin (5 μg/ml), hydrocortisone (0.5 μg/ml), forskolin (10 μM), gentamicin (20 μg/ml), penicillin/streptomycin/amphotericin B (100 U/ml) (Invitrogen). Cells were seeded in 6-well plates (60000 cells/well), depleted and incubated with compounds for the times indicated. Then cells were detached in the presence of 2000 of […] (Thermo) and 2 ml of RPMI 1640 Glutamax (Gibco) was added to the cell solution. 100 of this solution was stained for 1 minute with 100 of 0.4% trypan blue before counting with a Malassez chamber. The effect of compound HA15 on cell viability of melanocytes and fibroblasts was studied, as illustrated by FIG. 2. Primary cell cultures of human normal melanocytes were prepared from human foreskin. […]

[1] = system: melanoma cells resistant to dabrafenib; assay: Trypan blue cell viability, melanoma cells resistant to dabrafenib; type: cell-based, human; settings: patient melanoma cells resistant to dabrafenib, FIG. 5
Experimental: The measure of cell viability was performed in the same way as for FIG. 1. Results are expressed as percentage of cells alive relatively to the number of living cells in the presence of DMSO, which is a negative control
Cells were seeded in 6-well plates (60000 cells/well), depleted and incubated with compounds for the times indicated. Then cells were detached in the presence of 2000 of HyQTase (Thermo) and 2 ml of RPMI 1640 Glutamax (Gibco) was added to the cell solution. 100 of this solution was stained for 1 minute with 100 of 0.4% trypan blue before counting with a Malassez chamber.
Melanoma cells resistant to dabrafenib wee prepared from patients treated and presented a resistance to dabrafenib. dabrafenib, [HA15], [SR47] and [SR50] were tested on these resistant cells, in order to determine their activity on cell viability of resistant melanoma cells, as illustrated in FIG. 5.

A375 melanoma cells = assay: A375 melanoma xenograft tumor development in nude mice; type: in vivo; settings: 0.7 mg/mouse/day over 24 days, athymic nude mice
Experimental: To assess a potential antineoplastic effect of (HA15) and (SR50) in vivo, A375 melanoma cells (2.5×10^6) were injected subcutaneously in 6-week-old female athymic nude mice and treated 5 days later by injection of vehicle (labrafil) or different compounds such as PLX4032, (HA15) and (SR50) (0.7 mg/mouse/day) over a period of 24 days. Inhibitory effect is expressed as the tumor volume (mm^3) on day 8, 11, 15, 18, 22 and 24.
Athymic BALB/C nu/nu mice (Harlan) were used. The animals were 6 weeks old and weighed between 20 and 25 g. The mice were housed in the animal's C3M in a 12 h/12 h cycle. The animals received water and food ad libitum. Mice were first acclimated for one week and then injected with A375 cells (2.5 million cells in 200 μl of PBS) subcutaneously into the right and left sides. Treatment was started eight days after injection of cancer cells (when tumors were visible). The various compounds were diluted in a mixture of Labrafil (90%) (Gattefosse), Tween 80 (1%) and N,N-Dimethylacetamide (9%). Five groups of six mice treated every day intraperitoneally with 0.7 mg/day of PLX4032, SR44 (HA15), SR47 (HA32), SR50 (JG25) or with the mixture of Labrafil in control were defined. Three times a week the tumor size was measured using a caliper. […]

phosphorylation = assay: Western blot of MAP vemurafenib activation on A375 melanoma cells; type: cell-based; settings: FIG. 6
Experimental: FIG. 6: Western Blots showing the effect of compounds of the invention and dabrafenib on MAP Vemurafenib activation on A375 melanoma cells.
Proteins were extracted in Fisher buffer containing TRIS-HCl pH 7.5 50 mM, NaCl 15 mM, Triton X-100 1% and proteases and phosphatases inhibitors. Briefly, cell lysates (30 μg) were separated by SDS-PAGE, transferred onto a PVDF membrane (Millipore, Molsheim, France) and then exposed to the appropriate antibodies. Proteins were visualized with the ECL system from Amersham (Arlington, Heights, Ill., USA). The western blots shown are representative of at least 3 independent experiments.
Indeed, dabrafenib as PLX4032 inhibits activation of B-Raf on B-Raf V600E mutated melanoma. The inhibition of B-Raf leads to inhibition of MAP Vemurafenib cascade and could be visualized through inhibition of MAP vemurafenib phosphorylation.

CC1(COc2ccc(CC3SC(=O)NC3=O)cc2)CCCCC1 (centres unmarked) [ciglitazone, reference compound]
cell viability of normal fibroblasts (normal human fibroblasts): not affected | cell viability of normal melanocytes (normal human melanocytes): not affected

CC(=O)Nc1nc(-c2ccc(NS(=O)(=O)c3cccc4c(N(C)C)cccc34)cc2)cs1 [HA32, N-(4-(4-(5-(dimethylamino)naphthalene-1-sulfonamido)phenyl)thiazol-2-yl)acetamide]
cell viability of resistant melanoma cells [1]: inhibit cell viability of resistant melanoma cells

CC(=O)Nc1nc(-c2cccc(NS(=O)(=O)c3ccc(C)cc3)c2)cs1 [SR50, N-(4-(3-(4-methylphenylsulfonamido)phenyl)thiazol-2-yl)acetamide]
ability of cells to develop visible tumors (A375 melanoma cells): markedly attenuated | cell viability of resistant melanoma cells [1]: inhibit cell viability of resistant melanoma cells

CC(C)(C)c1nc(-c2cccc(NS(=O)(=O)c3c(F)cccc3F)c2F)c(-c2ccnc(N)n2)s1 [dabrafenib]
MAP vemurafenib expression (phosphorylation): did not modulate | MAP vemurafenib phosphorylation (phosphorylation; versus DMSO): complete inhibition | cell viability of resistant melanoma cells [1]: contrary to dabrafenib inhibit cell viability of resistant melanoma cells
